Source: patent US9635854B2, “Controlling red rice with mesotrione” (FMC Corporation, priority 2014, dated 2017)
Like-named read-outs stand apart in the source and are kept apart here.

What was measured:
[1] = tested on: rice (Taggart variety); assay: Pre-emergent weed control in direct-seeded flooded rice (Example 2), rice injury; format: in vivo; settings: for % Rice Injury Rice Taggert: pre-emergent, flooded, 28 Days After Treatment
Excerpt: (§1) Seeds of crops, rice (Taggart and Wells varieties) and weeds, yellow nutsedge (Cyperus esculentus), barnyardgrass (Echinochloa crus-galli), large crabgrass (Digitaria sanguinalis), hemp sesbania (Sesbania herbacea), Benghal dayflower (Commelina benghalensis), red rice (Oryza sativa) and broadleaf signalgrass (Urochloa platyphylla) were planted in two gallon pots containing top soil. Each pot was watered well before the application of mesotrione (Callisto® Herbicide from Syngenta Crop Protection).

[2] = tested on: rice (Wells variety); assay: as above; format: in vivo; settings: for % Rice Injury Rice Wells: pre-emergent, flooded, 28 Days After Treatment
Excerpt: as §1

[3] = tested on: red rice (Oryza sativa); assay: Pre-emergent evaluation on dryland rice, red rice control; format: in vivo; settings: for Percent red rice control: PRE, direct-seeded dryland rice
Excerpt: Rice (Oryza sativa) was planted in 6″ by 10″ fiber flats filled with sterile top soil. Five rows were made in each flat and the three rice varieties (′Cybonee, ‘Jupiter’, and ‘Taggart’) were planted in the center 3 rows and a row of red rice (Oryza sativa) was planted on either end of the flat. The flats were watered after planting. After application flats were placed in the greenhouse and lightly watered. […] The flats were moved to a greenhouse and watered and fertilized routinely. Studies were conducted using randomized complete block design with four replications. In both studies, visual percent red rice control and rice injury were recorded at 14, 21, and 28 days after treatment (DAT), using a scale of 0 (no control/injury) to 100 (complete plant death).

[4] = tested on: large crabgrass; assay: Direct seeded dryland rice test, pre-emergent (FIG. 2); format: in vivo; settings: pre-emergent treatment at 25 g ai/ha
[5] = tested on: Rice (Oryza sativa) 'Taggart'; settings: PRE, direct-seeded flooded rice
Experimental: (§2) Rice (Oryza sativa) crop varieties (‘Cybonee’, ‘Jupiter’, and ‘Taggart’) and red rice (Oryza sativa) were planted in 6 inch plastic pots containing sterile top soil. Eight to ten seeds of each species were seeded at 12 o'clock, 3 o'clock, 6 o'clock or 9 o'clock around the pot. The pots were watered after planting. […] The test solutions were applied using a compressed air track spray chamber at 30 gallons per acre using a Teejet 8001E nozzle at 40 PSI, three replicates per test rate. After treatment, the pots were watered lightly and transferred to trays in a greenhouse. After the plants were two inches in height the trays were flooded with water and maintained as such for 14 days. The trays were emptied of water and the pots were maintained by regular watering for 4 more days. At 14, 21 and 28 days after treatment (DAT) the plants were evaluated versus untreated control pots containing the same rice and weeds using a scale of 0% (no control) to 100% (complete plant death).

[6] = tested on: Rice (Oryza sativa) 'Jupiter'; settings: PRE, direct-seeded flooded rice
Experimental: as §2

[7] = tested on: Rice (Oryza sativa) 'Cybonee'; settings: PRE, direct-seeded flooded rice
Experimental: as §2

[8] = tested on: yellow nutsedge; assay: Direct seeded dryland rice test, pre-emergent (FIG. 2); format: in vivo; settings: pre-emergent treatment at 25 g ai/ha

CS(=O)(=O)c1ccc(C(=O)C2C(=O)CCCC2=O)c([N+](=O)[O-])c1 [Mesotrione, mesotrione]
% Rice Injury Rice Taggert ([1]; 6 g ai/ha): 0% | % Rice Injury Rice Taggert ([1]; 12 g ai/ha): 2% | % Rice Injury Rice Taggert ([1]; 25 g ai/ha): 4% | % Rice Injury Rice Taggert ([1]; 50 g ai/ha): 8% | % Rice Injury Rice Taggert ([1]; 100 g ai/ha): 10% | % Rice Injury Rice Taggert ([1]; 200 g ai/ha): 53% | safety on white rice, Taggart ([1]; summary of Table 7 data): safe | % Rice Injury Rice Wells ([2]; 6 g ai/ha): 0% | % Rice Injury Rice Wells ([2]; 12 g ai/ha): 2% | % Rice Injury Rice Wells ([2]; 25 g ai/ha): 4% | % Rice Injury Rice Wells ([2]; 50 g ai/ha): 5% | % Rice Injury Rice Wells ([2]; 100 g ai/ha): 12% | % Rice Injury Rice Wells ([2]; 200 g ai/ha): 47% | safety on white rice, Wells ([2]; summary of Table 7 data): safe | Percent red rice control ([3]; 14 DAT, 12.5 g ai/ha): 33 D % | Percent red rice control ([3]; 14 DAT, 25 g ai/ha): 70 B % | Percent red rice control ([3]; 14 DAT, 37.5 g ai/ha): 74 B % | Percent red rice control ([3]; 14 DAT, 50 g ai/ha): 79 A % | Percent red rice control ([3]; 14 DAT, 62.5 g ai/ha): 80 A % | Percent red rice control ([3]; 14 DAT, 75 g ai/ha): 80 A % | Percent red rice control ([3]; 14 DAT, 87.5 g ai/ha): 80 A % | Percent red rice control ([3]; 14 DAT, 100 g ai/ha): 80 A % | Percent red rice control ([3]; 21 DAT, 12.5 g ai/ha): 60 C % | Percent red rice control ([3]; 21 DAT, 25 g ai/ha): 81 B % | Percent red rice control ([3]; 21 DAT, 37.5 g ai/ha): 84 AB % | Percent red rice control ([3]; 21 DAT, 50 g ai/ha): 86 AB % | Percent red rice control ([3]; 21 DAT, 62.5 g ai/ha): 89 AB % | Percent red rice control ([3]; 21 DAT, 75 g ai/ha): 90 A % | Percent red rice control ([3]; 21 DAT, 87.5 g ai/ha): 90 A % | Percent red rice control ([3]; 21 DAT, 100 g ai/ha): 90 A % | Percent red rice control ([3]; 28 DAT, 12.5 g ai/ha): 62 B % | Percent red rice control ([3]; 28 DAT, 25 g ai/ha): 89 A % | Percent red rice control ([3]; 28 DAT, 37.5 g ai/ha): 88 A % | Percent red rice control ([3]; 28 DAT, 50 g ai/ha): 91 A % | Percent red rice control ([3]; 28 DAT, 62.5 g ai/ha): 92 A % | Percent red rice control ([3]; 28 DAT, 75 g ai/ha): 92 A % | Percent red rice control ([3]; 28 DAT, 87.5 g ai/ha): 95 A % | Percent red rice control ([3]; 28 DAT, 100 g ai/ha): 93 A % | red rice control (words, FIG. 3) ([3]; pre-emergent treatment at 25 g ai/ha, direct seeded dryland rice test): controlled | large crabgrass control (words, FIG. 2) [4]: controlled | Percent rice injury Taggart ([5]; 14 DAT, 12.5 g ai/ha): 4 B % | Percent rice injury Taggart ([5]; 14 DAT, 25 g ai/ha): 1 B % | Percent rice injury Taggart ([5]; 14 DAT, 37.5 g ai/ha): 4 B % | Percent rice injury Taggart ([5]; 14 DAT, 50 g ai/ha): 7 B % | Percent rice injury Taggart ([5]; 14 DAT, 62.5 g ai/ha): 12 B % | Percent rice injury Taggart ([5]; 14 DAT, 75 g ai/ha): 12 B % | Percent rice injury Taggart ([5]; 14 DAT, 87.5 g ai/ha): 19 B % | Percent rice injury Taggart ([5]; 14 DAT, 100 g ai/ha): 18 B % | Percent rice injury Taggart ([5]; 21 DAT, 12.5 g ai/ha): 1 D % | Percent rice injury Taggart ([5]; 21 DAT, 25 g ai/ha): 1 D % | Percent rice injury Taggart ([5]; 21 DAT, 37.5 g ai/ha): 1 D % | Percent rice injury Taggart ([5]; 21 DAT, 50 g ai/ha): 6 D % | Percent rice injury Taggart ([5]; 21 DAT, 62.5 g ai/ha): 10 CD % | Percent rice injury Taggart ([5]; 21 DAT, 75 g ai/ha): 25 BCD % | Percent rice injury Taggart ([5]; 21 DAT, 87.5 g ai/ha): 35 BC % | Percent rice injury Taggart ([5]; 21 DAT, 100 g ai/ha): 38 B % | Percent rice injury Taggart ([5]; 28 DAT, 12.5 g ai/ha): 2 C % | Percent rice injury Taggart ([5]; 28 DAT, 25 g ai/ha): 4 C % | Percent rice injury Taggart ([5]; 28 DAT, 37.5 g ai/ha): 4 C % | Percent rice injury Taggart ([5]; 28 DAT, 50 g ai/ha): 9 C % | Percent rice injury Taggart ([5]; 28 DAT, 62.5 g ai/ha): 9 C % | Percent rice injury Taggart ([5]; 28 DAT, 75 g ai/ha): 29 BC % | Percent rice injury Taggart ([5]; 28 DAT, 87.5 g ai/ha): 42 AB % | Percent rice injury Taggart ([5]; 28 DAT, 100 g ai/ha): 53 AB % | Percent rice injury Jupiter ([6]; 14 DAT, 12.5 g ai/ha): 2 B % | Percent rice injury Jupiter ([6]; 14 DAT, 25 g ai/ha): 2 B % | Percent rice injury Jupiter ([6]; 14 DAT, 37.5 g ai/ha): 4 B % | Percent rice injury Jupiter ([6]; 14 DAT, 50 g ai/ha): 2 B % | Percent rice injury Jupiter ([6]; 14 DAT, 62.5 g ai/ha): 5 B % | Percent rice injury Jupiter ([6]; 14 DAT, 75 g ai/ha): 6 B % | Percent rice injury Jupiter ([6]; 14 DAT, 87.5 g ai/ha): 12 B % | Percent rice injury Jupiter ([6]; 14 DAT, 100 g ai/ha): 11 B % | Percent rice injury Jupiter ([6]; 21 DAT, 12.5 g ai/ha): 0 D % | Percent rice injury Jupiter ([6]; 21 DAT, 25 g ai/ha): 0 D % | Percent rice injury Jupiter ([6]; 21 DAT, 37.5 g ai/ha): 1 CD % | Percent rice injury Jupiter ([6]; 21 DAT, 50 g ai/ha): 3 CD % | Percent rice injury Jupiter ([6]; 21 DAT, 62.5 g ai/ha): 5 CD % | Percent rice injury Jupiter ([6]; 21 DAT, 75 g ai/ha): 13 BCD % | Percent rice injury Jupiter ([6]; 21 DAT, 87.5 g ai/ha): 22 BC % | Percent rice injury Jupiter ([6]; 21 DAT, 100 g ai/ha): 28 B % | Percent rice injury Jupiter ([6]; 28 DAT, 12.5 g ai/ha): 2 D % | Percent rice injury Jupiter ([6]; 28 DAT, 25 g ai/ha): 2 D % | Percent rice injury Jupiter ([6]; 28 DAT, 37.5 g ai/ha): 4 D % | Percent rice injury Jupiter ([6]; 28 DAT, 50 g ai/ha): 5 D % | Percent rice injury Jupiter ([6]; 28 DAT, 62.5 g ai/ha): 8 CD % | Percent rice injury Jupiter ([6]; 28 DAT, 75 g ai/ha): 20 BCD % | Percent rice injury Jupiter ([6]; 28 DAT, 87.5 g ai/ha): 44 B % | Percent rice injury Jupiter ([6]; 28 DAT, 100 g ai/ha): 41 BC % | Percent rice injury Cybonet ([7]; 14 DAT, 12.5 g ai/ha): 2 B % | Percent rice injury Cybonet ([7]; 14 DAT, 25 g ai/ha): 0 B % | Percent rice injury Cybonet ([7]; 14 DAT, 37.5 g ai/ha): 3 B % | Percent rice injury Cybonet ([7]; 14 DAT, 50 g ai/ha): 4 B % | Percent rice injury Cybonet ([7]; 14 DAT, 62.5 g ai/ha): 11 B % | Percent rice injury Cybonet ([7]; 14 DAT, 75 g ai/ha): 9 B % | Percent rice injury Cybonet ([7]; 14 DAT, 87.5 g ai/ha): 12 B % | Percent rice injury Cybonet ([7]; 14 DAT, 100 g ai/ha): 11 B % | Percent rice injury Cybonet ([7]; 21 DAT, 12.5 g ai/ha): 1 C % | Percent rice injury Cybonet ([7]; 21 DAT, 25 g ai/ha): 4 C % | Percent rice injury Cybonet ([7]; 21 DAT, 37.5 g ai/ha): 8 C % | Percent rice injury Cybonet ([7]; 21 DAT, 50 g ai/ha): 6 C % | Percent rice injury Cybonet ([7]; 21 DAT, 62.5 g ai/ha): 13 BC % | Percent rice injury Cybonet ([7]; 21 DAT, 75 g ai/ha): 32 ABC % | Percent rice injury Cybonet ([7]; 21 DAT, 87.5 g ai/ha): 44 AB % | Percent rice injury Cybonet ([7]; 21 DAT, 100 g ai/ha): 49 A % | Percent rice injury Cybonet ([7]; 28 DAT, 12.5 g ai/ha): 5 CD % | Percent rice injury Cybonet ([7]; 28 DAT, 25 g ai/ha): 7 CD % | Percent rice injury Cybonet ([7]; 28 DAT, 37.5 g ai/ha): 9 CD % | Percent rice injury Cybonet ([7]; 28 DAT, 50 g ai/ha): 7 CD % | Percent rice injury Cybonet ([7]; 28 DAT, 62.5 g ai/ha): 17 BCD % | Percent rice injury Cybonet ([7]; 28 DAT, 75 g ai/ha): 32 ABC % | Percent rice injury Cybonet ([7]; 28 DAT, 87.5 g ai/ha): 52 A % | Percent rice injury Cybonet ([7]; 28 DAT, 100 g ai/ha): 62 A % | yellow nutsedge control (words, FIG. 2) [8]: controlled
